The values that follow come from patent US20240343733A1, “COMPOUNDS FOR TARGETING DEGRADATION OF IRAK4 PROTEINS” (BIOGEN MA INC., priority 2021, published 2024).

SMILES strings stand for the structures.

The target of this assay is T1, IRAK4 (Homo sapiens, UniProt Q9NWZ3).
T1 construct: 293Tcells expressing HiBiT-tagged IRAK4 were then added into 384-well plates
T1 sequence (Q9NWZ3 1-460): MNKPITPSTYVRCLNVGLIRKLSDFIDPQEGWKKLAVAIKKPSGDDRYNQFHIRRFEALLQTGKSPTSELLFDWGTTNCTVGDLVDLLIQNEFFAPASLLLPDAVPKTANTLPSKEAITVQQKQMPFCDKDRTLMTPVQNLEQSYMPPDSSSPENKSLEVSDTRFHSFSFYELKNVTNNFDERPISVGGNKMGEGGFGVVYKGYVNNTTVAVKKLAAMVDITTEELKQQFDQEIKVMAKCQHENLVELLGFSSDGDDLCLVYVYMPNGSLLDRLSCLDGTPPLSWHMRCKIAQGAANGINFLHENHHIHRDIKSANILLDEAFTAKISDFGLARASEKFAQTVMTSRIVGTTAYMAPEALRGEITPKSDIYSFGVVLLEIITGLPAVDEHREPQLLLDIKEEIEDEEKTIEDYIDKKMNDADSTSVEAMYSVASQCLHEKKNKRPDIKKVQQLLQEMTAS
Kind of assay: IRAK4 Degradation Assay, HiBiT Method. Type of assay: cell-based. The note with it: 293T cells expressing HiBiT-tagged IRAK4, 6 hours. The method, then:
Assay 1. IRAK4 Degradation Assay, HiBiT Method
Selected compounds were tested in an IRAK4 degradation assay using the HiBiT Method.
Phenol red-free Dulbecco's modified Eagle medium (DMEM) and fetal bovine serum (FBS) were purchased from Gibco (Grand Island, NY, USA). The Nano-Glo® HiBiT Lytic Assay System was purchased from Promega (Madison, WI, USA). Cell culture flasks and 384-well microplates were acquired from VWR (Radnor, PA, USA). The 293Tcell line was engineered by knocking-in a HiBiT fusion tag into the C-terminal of the IRAK4 gene in 293T cells (Synthego, Redwood City, CA, USA).
IRAK4 degradation was measured via the quantification of luminescent signals using the Nano-Glo® HiBiT Lytic Assay kit. Test compounds were added to 384-well plates in duplicate using an 11-point half-log dilution series, with the highest dose set at […]. 293Tcells expressing HiBiT-tagged IRAK4 were then added into 384-well plates at a cell density of 10,000 cells per well. The plates were kept at 37° C. with 5% CO2 for 6 hours. Cells that were treated only with DMSO served as the negative control; wells that contained only assay media served as the background control. After the 6-hour incubation, Nano-Glo® HiBiT Lytic Assay reagents were added to the cells. Luminescence was acquired using an EnVision™ Multilabel Reader (PerkinElmer, Santa Clara, CA, USA).
`CC(C)Oc1cc2nc([C@H]3CC[C@H](CN4CCC(c5ccc6c(c5)n(C)c(=O)n6C5CCC(=O)NC5=O)C(F)(F)C4)CC3)cn2cc1C(=O)Nc1cccn([C@H]2C[C@H]2F)c1=O` (stereo partly drawn) [Example 168, 2-((1r,4S)-4-((4-(1-(2,6-dioxopiperidin-3-yl)-3-methyl-2-oxo-2,3-dihydro-1H-benzo[d]imidazol-5-yl)-3,3-difluoropiperidin-1-yl)methyl)cyclohexyl)-N-(1-((1S,2R)-2-fluorocyclopropyl)-2-oxo-1,2-dihydropyridin-3-yl)-7-isopropoxyimidazo[1,2-a]pyridine-6-carboxamide] yielded a DC50 of 10 to 100 nM. As to `CC(C)Oc1cc2nn(C3CCN(C(=O)CN4CCC(c5ccc(C6CCC(=O)NC6=O)cc5F)CC4)CC3)cc2cc1C(=O)Nc1cccc(C(F)F)n1` (centres unmarked) [Example 63, N-(6-(difluoromethyl)pyridin-2-yl)-2-(1-(2-(4-(4-(2,6-dioxopiperidin-3-yl)-2-fluorophenyl)piperidin-1-yl)acetyl)piperidin-4-yl)-6-isopropoxy-2H-indazole-5-carboxamide], the DC50 lay in the range of 10 to 100 nM. Take `CC(C)Oc1cc2nn([C@H]3CC[C@H](CN4CCOC[C@H]4Cc4ccc(OC5CCC(=O)NC5=O)cc4)CC3)cc2cc1C(=O)Nc1cccn(C2CC2)c1=O` (stereo partly drawn) [Example 127, N-(1-cyclopropyl-2-oxo-1,2-dihydropyridin-3-yl)-2-((S,4r)-4-(((3S)-3-(4-((2,6-dioxopiperidin-3-yl)oxy)benzyl)morpholino)methyl)cyclohexyl)-6-isopropoxy-2H-indazole-5-carboxamide]: the DC50 is 10 to 100 nM. For `CC(C)Oc1cc2nn(C3CCN(C(=O)CC4(O)CCN(c5ccc(NC6CCC(=O)NC6=O)cc5)CC4)CC3)cc2cc1C(=O)Nc1cccc(C(F)(F)F)n1` (centres unmarked) [Example 58, 2-[1-[2-[1-[4-[(2,6-dioxo-3-piperidyl)amino]phenyl]-4-hydroxy-4-piperidyl]acetyl]-4-piperidyl]-6-isopropoxy-N-[6-(trifluoromethyl)-2-pyridyl]indazole-5-carboxamide], the DC50 lay within 10 to 100 nM. Compound `CC(C)Oc1cc2nn(C3CCN(C(=O)CN4CCC(c5ccc(NC6CCC(=O)NC6=O)cc5)CC4)CC3)cc2cc1C(=O)Nc1cccc(C(F)(F)F)n1` (centres unmarked) [Example 60, 2-(1-(2-(4-(4-((2,6-dioxopiperidin-3-yl)amino)phenyl)piperidin-1-yl)acetyl)piperidin-4-yl)-6-isopropoxy-N-(6-(trifluoromethyl)pyridin-2-yl)-2H-indazole-5-carboxamide] returned a half-maximal degradation concentration (DC50) of 100 to 500 nM. The compound `CC(C)Oc1cc2nc(C3CCN(C(=O)CCCNc4ccc(C5CCC(=O)NC5=O)cn4)CC3)cn2cc1C(=O)Nc1cccn([C@H]2C[C@H]2F)c1=O` (stereo partly drawn) [Example 164, 2-(1-(4-((5-(2,6-dioxopiperidin-3-yl)pyridin-2-yl)amino)butanoyl)piperidin-4-yl)-N-(1-((1S,2R)-2-fluorocyclopropyl)-2-oxo-1,2-dihydropyridin-3-yl)-7-isopropoxyimidazo[1,2-a]pyridine-6-carboxamide] displayed a DC50 of 10 to 100 nM.

As to `CC(C)Oc1cc2nc([C@H]3CC[C@H](CN4CCC(c5ncc(NC6CCC(=O)NC6=O)cc5F)CC4)CC3)cn2cc1C(=O)Nc1cccn(C2CC2)c1=O` (some centres unmarked) [Example 174, N-(1-cyclopropyl-2-oxo-1,2-dihydropyridin-3-yl)-2-((1r,4r)-4-((4-(5-((2,6-dioxopiperidin-3-yl)amino)-3-fluoropyridin-2-yl)piperidin-1-yl)methyl)cyclohexyl)-7-isopropoxyimidazo[1,2-a]pyridine-6-carboxamide], the DC50 is 10 to 100 nM. Compound `CC(C)Oc1cc2nc([C@H]3CC[C@H](CN4CC5(CCN(c6ncc(N7CCC(=O)NC7=O)cc6F)CC5)C4)CC3)cn2cc1C(=O)Nc1cnn2cccnc12` [Example 181, 2-((1r,4r)-4-((7-(5-(2,4-dioxotetrahydropyrimidin-1(2H)-yl)-3-fluoropyridin-2-yl)-2,7-diazaspiro[3.5]nonan-2-yl)methyl)cyclohexyl)-7-isopropoxy-N-(pyrazolo[1,5-a]pyrimidin-3-yl)imidazo[1,2-a]pyridine-6-carboxamide] returned a DC50 of under 10 nM. Regarding `CO[C@H]1CN(C[C@H]2CC[C@H](c3cn4cc(C(=O)Nc5cccn([C@H]6C[C@H]6F)c5=O)c(OC(C)C)cc4n3)CC2)CC[C@H]1c1ccc2c(N3CCC(=O)NC3=O)nn(C)c2c1` [Example 191], the DC50 is under 10 nM.

Compound `CO[C@H]1CN(C[C@H]2CC[C@H](n3cc4cc(C(=O)Nc5cccn([C@H]6C[C@H]6F)c5=O)c(OC(C)C)cc4n3)CC2)CC[C@H]1c1ccc2c(N3CCC(=O)NC3=O)nn(C)c2c1` [Example 134, 2-((1R,4S)-4-(((3R,4S)-4-(3-(2,4-dioxotetrahydropyrimidin-1(2H)-yl)-1-methyl-1H-indazol-6-yl)-3-methoxypiperidin-1-yl)methyl)cyclohexyl)-N-(1-((1S,2R)-2-fluorocyclopropyl)-2-oxo-1,2-dihydropyridin-3-yl)-6-isopropoxy-2H-indazole-5-carboxamide] displayed a half-maximal degradation concentration (DC50) of under 10 nM. In the case of `CC(C)Oc1cc2nc([C@H]3CC[C@H](CN(C)C4CCN(c5ccc(C6CCC(=O)NC6=O)cc5)CC4)CC3)cn2cc1C(=O)Nc1cccc(C(F)(F)F)n1` (some centres unmarked) [Example 13, 2-[4-[[[1-[4-(2,6-dioxo-3-piperidyl)phenyl]-4-piperidyl]-methyl-amino]methyl]cyclohexyl]-7-isopropoxy-N-[6-(trifluoromethyl)-2-pyridyl]imidazo[1,2-a]pyridine-6-carboxamide], the DC50 was 10 to 100 nM. On to `CC(C)Oc1cc2nn([C@H]3CC[C@H](CN4CCOC[C@@H]4Cc4ccc(OC5CCC(=O)NC5=O)cc4)CC3)cc2cc1C(=O)Nc1cnn2cccnc12` (stereo partly drawn) [Example 131, 2-((1R,4r)-4-(((3R)-3-(4-((2,6-dioxopiperidin-3-yl)oxy)benzyl)morpholino)methyl)cyclohexyl)-6-isopropoxy-N-(pyrazolo[1,5-a]pyrimidin-3-yl)-2H-indazole-5-carboxamide], for which the DC50 is 10 to 100 nM. Then `CC(C)Oc1cc2nc(C3(C)CCN(CC(=O)N4CCC(c5ccc(NC6CCC(=O)NC6=O)cc5)CC4)CC3)cn2cc1C(=O)Nc1cccc(C(F)(F)F)n1` (centres unmarked) [Example 95, 2-[1-[2-[4-[4-[(2,6-dioxo-3-piperidyl)amino]phenyl]-1-piperidyl]-2-oxo-ethyl]-4-methyl-4-piperidyl]-7-isopropoxy-N-[6-(trifluoromethyl)-2-pyridyl]imidazo[1,2-a]pyridine-6-carboxamide], with 100 to 500 nM; and `CC(C)Oc1cc2nc([C@H]3CC[C@H](CN4CCC(c5cc6c(cc5F)c(N5CCC(=O)NC5=O)nn6C)C(F)(F)C4)CC3)cn2cc1C(=O)Nc1cnn2cccnc12` (some centres unmarked) [Example 170, 2-((1r,4r)-4-((4-(3-(2,4-dioxotetrahydropyrimidin-1(2H)-yl)-5-fluoro-1-methyl-1H-indazol-6-yl)-3,3-difluoropiperidin-1-yl)methyl)cyclohexyl)-7-isopropoxy-N-(pyrazolo[1,5-a]pyrimidin-3-yl)imidazo[1,2-a]pyridine-6-carboxamide], with 10 to 100 nM.

In the case of `CC(C)Oc1cc2nc([C@H]3CC[C@H](CN(C)C4CCN(c5ccc(C6CCC(=O)NC6=O)cc5)CC4)CC3)cn2cc1C(=O)Nc1cccc(C(F)F)n1` (some centres unmarked) [Example 30, N-[6-(difluoromethyl)-2-pyridyl]-2-[4-[[[1-[4-(2,6-dioxo-3-piperidyl)phenyl]-4-piperidyl]-methyl-amino]methyl]cyclohexyl]-7-isopropoxy-imidazo[1,2-a]pyridine-6-carboxamide], the half-maximal degradation concentration (DC50) is under 10 nM. In turn, `CC(C)Oc1cc2nc(C3CCN(C(=O)CN4CCC(c5ccc6c(C7CCC(=O)NC7=O)nn(C)c6c5)C(F)(F)C4)CC3)cn2cc1C(=O)Nc1cccc(C(F)F)n1` (centres unmarked) [Example 78, N-[6-(difluoromethyl)-2-pyridyl]-2-[1-[2-[4-[3-(2,6-dioxo-3-piperidyl)-1-methyl-indazol-6-yl]-3,3-difluoro-1-piperidyl]acetyl]-4-piperidyl]-7-isopropoxy-imidazo[1,2-a]pyridine-6-carboxamide] displayed a DC50 of 10 to 100 nM.

As to `CC(C)Oc1cc2nc(C3CCN(CC(=O)N4CCC(c5ccc(NC6CCC(=O)NC6=O)cc5)CC4)CC3)cn2cc1C(=O)Nc1cccc(C(F)(F)F)c1` (centres unmarked) [Example 106, 2-[1-[2-[4-[4-[(2,6-dioxo-3-piperidyl)amino]phenyl]-1-piperidyl]-2-oxo-ethyl]-4-piperidyl]-7-isopropoxy-N-[3-(trifluoromethyl)phenyl]imidazo[1,2-a]pyridine-6-carboxamide], the DC50 lay in the range of 100 to 500 nM.
